US10471118B2, “Retinylamine derivitives for treatment of ocular disorders” (CASE WESTERN RESERVE UNIVERSITY, priority 2014, dated 2019)

Legend:
[1] = Biodistribution of N-retinylamides and retinylamine derivatives in liver and eye after oral gavage; format: in vivo, mouse; details: for original drug detected in the eye: 2 h and 16 h
Protocol: Female C57BL mice (4-week-old) were randomly divided into seven groups, six treated groups and one control group. Free Ret-NH2 (3.5 μmol per mouse, dissolved in DMSO and dispersed in vegetable oil) or retinylamine derivatives (Ret-Gly, Ret-L-Val-Gly, Ret-L-Phe, Ret-L-Leu, Ret-L-Val, 3.5 μmol per mouse, dissolved in DMSO and dispersed in vegetable oil) was administered by gastric gavage, control group was only gavaged vegetable oil. Then at each predetermined time point (2 and 16 h after drug administration), 3 mice were sacrificed. The liver and eye balls were collected to determine tissue N-retinylamide content for pharmacokinetic analysis. A portion of the liver tissue (0.3-0.5 g) was weighed, homogenized in 2 mL 1:1 ethanol:PBS solution and the eye balls were similarly processed (eye balls were combined for 3 mice). N-Retinylamides were extracted in 4 mL hexane, concentrated, and reconstituted to a 300 μL volume for liver (200 μL for eye). Normal-phase HPLC (Agilent-Zorbax SIL; 5 μm; 4.5×250 mm; flow rate of 1.4 mL/min; 80:20 hexane:ethyl acetate (v:v); detection at 325 nm) was utilized to determine N-retinylamide concentration in these tissues.
Female C57BL mice (4-week-old) were randomly divided into seven groups, six treated groups and one control group. Free Ret-NH2 (3.5 μmol per mouse, dissolved in DMSO and dispersed in vegetable oil) or retinylamine derivative (Ret-Gly, Ret-L-Val-Gly, Ret-L-Phe, Ret-L-Leu, Ret-L-Val, 3.5 μmol per mouse, dissolved in DMSO and dispersed in vegetable oil) was administered by gastric gavage, control group was only gavaged vegetable oil. Then at each predetermined time point (2 and 16 h after drug administration), 3 mice were sacrificed. The liver and eye balls were collected to determine tissue drug content for pharmacokinetic analysis. A portion of the liver tissue (0.3-0.5 g) was weighed, homogenized in 2 mL 1:1 ethanol:PBS solution and the eye balls were similarly processed. Retinylamine or its derivative was extracted in 4 mL ethyl acetate, concentrated, and reconstituted to a 300 μL volume for liver (200 μL for eye). Reverse-phase HPLC (analytical C18 reverse column; 5 μm; 250 mm×4.6 mm; flow rate of 1.0 mL/min; 60:40 acetonitrile:H2O (v:v) with 0.05% trifluoroacetic acid; detection at 325 nm) was utilized to determine retinylamine or its derivative in these tissues. […]
No N-retinylamides were detected in the eye at 2 h for all treated mice. The concentration of N-retinylamides in the liver of all treated mice increased at 16 h post-treatment. […] The concentrations of the original drugs were also determined in the liver and eye at 2 h and 16 h (FIGS. 7C, D). All tested drugs, including Ret-NH2, were detected in liver and their concentrations decreased from 2 h to 16 h.

RPE65 = biological target: T1, RPE65 (Mus musculus, UniProt Q91ZQ5); test: In vivo RPE65 inhibition: 11-cis-retinal regeneration after photo-bleach; details: 1.75 μmol per mouse oral 16 h prior to photo-bleach (7000 lux, 10 min), 24 h dark
T1 sequence (Q91ZQ5 2-533 limits assumed): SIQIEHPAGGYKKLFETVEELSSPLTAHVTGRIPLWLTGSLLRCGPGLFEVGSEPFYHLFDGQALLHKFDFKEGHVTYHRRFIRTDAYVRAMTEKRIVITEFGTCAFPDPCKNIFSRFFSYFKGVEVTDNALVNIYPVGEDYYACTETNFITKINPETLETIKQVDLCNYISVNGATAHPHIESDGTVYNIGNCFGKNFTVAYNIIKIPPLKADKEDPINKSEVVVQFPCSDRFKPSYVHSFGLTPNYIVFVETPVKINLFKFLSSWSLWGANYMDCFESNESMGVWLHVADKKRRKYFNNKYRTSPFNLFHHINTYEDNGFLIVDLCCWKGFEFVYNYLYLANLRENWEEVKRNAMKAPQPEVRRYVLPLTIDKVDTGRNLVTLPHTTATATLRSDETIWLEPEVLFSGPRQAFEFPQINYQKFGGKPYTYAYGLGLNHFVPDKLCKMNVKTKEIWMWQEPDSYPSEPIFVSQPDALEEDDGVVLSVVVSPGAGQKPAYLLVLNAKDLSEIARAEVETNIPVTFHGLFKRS
Protocol: The retinylamine derivatives (31 RVG and 3b RF) or Ret-NH2 were administered by oral gavage at same mole dose 1.75 μmol per mouse into dark-adapted C57BLwild-type female mice (n=3) at 16 h prior to photo-bleach. After photo-bleach (7000 lux, 10 min), mice were kept the dark room for 24 h to allow the visual cycle to recovery. Mice were then sacrificed and eyes were extracted for analysis. Mice without treatment prior to photo-bleach were set as control. Retinoid extraction was done by manually homogenizing eyes in 1 mL of 1:1 ethanol:PBS solution containing 40 mM hydroxylamine. Retinoids were extracted in 4 mL hexane, concentrated, and reconstituted to a volume of 200 μL. Normal-phase HPLC (Agilent-Zorbax SIL; 5 μm; 4.5×250 mm; flow rate of 1.4 mL/min; 90:10 hexane:ethyl acetate (v:v); detection at 325 nm) was utilized to analyze retinoid concentrations. In vivo RPE65 inhibition was analyzed by quantifying the amount of 11-cis-retinal within each eye.

[2] = All-trans-retinal Schiff base formation; details: 0.2 mM drug with all-trans-retinal in ethanol 2 h at room temperature
Protocol: Incubate Ret-NH2 and retinylamine derivatives RVG, RF (0.2 mM) with all-trans-retinal (2 mM) in ethanol 2 h at room temperature, retinyl imines separated by reverse phase HPLC were identified on the basis of both their characteristic UV-vis spectra upon protonation and spectra obtained by mass spectrometry (MS). HPLC condition: analytical C18 reverse column; 5 μm; 250 mm×4.6 mm; flow rate of 0.5 mL/min; mobile phase acetonitrile:H2O (v:v) with 0.05% trifluoroacetic acid (0-15 min acetonitrile from 50% to 100%, 15-30 min 100% acetonitrile); detection at 325 nm.

C57BL/6J wild-type mice = test: ERG retinal function in C57BL/6J wild-type mice after oral gavage; format: in vivo; details: 1.75 μmol per mouse oral; for ERG signal compared with nontreated control: 6 h post-treatment; for ERG signal compared with untreated control: 24 h post treatment
Protocol: All ERG procedures were performed by published methods. For single-flash recording, the duration of white-light flash stimuli (from 20 μs to 1 ms) was adjusted to provide a range of illumination intensities (from −3.7 to 1.6 log cd s m-2). Three to five recordings were made at sufficient intervals between flash stimuli (from 3 s to 1 min) to allow recovery from any photobleaching effects.
Strong inhibition of retinoid cycle could cause temporary vision impairment. Electroretinograms (ERGs) were recorded to in retinal function in C57BL/6J wild-type mice at 6 and 24 h after oral gavage of RVG, RF or Ret-NH2 at a dose of 1.75 μmol per mouse.

[3] = 3.5 μmol per mouse oral, C57BL mice, 16 h

SMILES	original drug detected in the eye ([1]; 3.5 μmol per mouse oral)	metabolism in the eye ([1]; conclusion from biodistribution at 2 h and 16 h)	regeneration of 11-cis-retinal in the eye (RPE65)	Schiff base formation with atRAL [2]	ERG signal compared with nontreated control (C57BL/6J wild-type mice)	ERG signal compared with untreated control (C57BL/6J wild-type mice)	N-retinylamides in the eye [1, 3]	liver concentration of N-retinylamides [1, 3]	ERG signal in the retina (C57BL/6J wild-type mice; first 24 h after the treatment)
CC1=C(/C=C/C(C)=C/C=C/C(C)=C/CNC(=O)[C@@H](N)Cc2ccccc2)C(C)(C)CCC1 [RF, (S)-2-amino-N-((2E,4E,6E,8E)-3,7-dimethyl-9-(2,6,6-trimethylcyclohex-1-en-1-yl)nona-2,4,6,8-tetraen-1-yl)-3-phenylpropanamide]	only detected at 2 h	rapidly metabolized into inactive N-retinylamides in the eye	faster regeneration of 11-cis-retinal in the eye, and weaker inhibition of retinoid cycle than Ret-NH2	able to form Schiff base with atRAL	attenuated ERG signal	recover to the magnitude of the untreated control mice			
CC1=C(/C=C/C(C)=C/C=C/C(C)=C/CNC(=O)[C@@H](NC(=O)CN)C(C)C)C(C)(C)CCC1 [RVG, (S)-2-(2-aminoacetamido)-N-((2E,4E,6E,8E)-3,7-dimethyl-9-(2,6,6-trimethylcyclohex-1-en-1-yl)nona-2,4,6,8-tetraen-1-yl)-3-methylbutanamide]	only detected at 16 h		faster regeneration of 11-cis-retinal in the eye, and weaker inhibition of retinoid cycle than Ret-NH2	able to form Schiff base with atRAL	attenuated ERG signal	recover to the magnitude of the untreated control mice	no detectable N-retinylamides in the eye	lower liver concentration of N-retinylamides than RF and RL	
CC1=C(/C=C/C(C)=C/C=C/C(C)=C/CN)C(C)(C)CCC1 [Ret-NH2, (2E,4E,6E,8E)-3,7-dimethyl-9-(2,6,6-trimethylcyclohex-1-en-1-yl)nona-2,4,6,8-tetraen-1-amine]	No free Ret-NH2 was detected in the eye		much lower concentration of 11-cis-retinal than the untreated controls	able to form Schiff base with atRAL					no significant ERG signal was detected
